Consider six molecules from ChEMBL document CHEMBL1201862, “PubChem BioAssay data set” (2004).

What all share (experiment): NCI-60 cell line screen, 48 h
Test [1] has as its system 786-0.
Test [2] deals with A498.
The test system of test [3] is CCRF-CEM.
Test [4] has as its system DU-145.
Test [5] relates to HCT-116.
Test [6] concerns HT-29.
Test [7] relates to Hs-578T.
Test [8] relates to IGROV-1.
For test [9], the system named is KM12.
Test [10] relates to M14.
Test [11] relates to MCF7.
Test [12] concerns MDA-MB-231.
The test system of test [13] is NCI-H226.
For test [14], the system named is OVCAR-4.
In test [15] the test system is SF-295.
In test [16] the test system is SF-539.
Test [17] deals with SK-MEL-28.
The subject of test [18] is SK-MEL-2.
The subject of test [19] is SK-MEL-5.
Test [20] deals with UACC-257.

Structures are written as SMILES.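 All cell lines were grown in 96-well plates and treated with compound for 48 hours. GI50 = concentration required for 50% inhibition of growth.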 The source made the active and inactive calls. Rule as the data show it: active = GI50 up to about 1.1 µM and inactive = higher.

Take `NCCCn1c2ccccc2c2c3c(c4c(c21)CCC(O)CC4)C(=O)NC3=O` (stereo not given): the GI50 was 2.92 µM (inactive) in test [1]; 9.38 µM (inactive) in [2]; 0.962 µM (active) in test [3]; 3.7 µM (inactive) in test [4]; 1.88 µM (inactive) in test [5]; 0.729 µM (active) in test [6]. In addition, the GI50 is 3.13 µM (inactive) in [7]; 9.79 µM (inactive) in test [8]; 0.458 µM (active) in test [9]; 4.48 µM (inactive) in [10]; 0.796 µM (active) in test [11]; 1.85 µM (inactive) in [12]. The GI50 in test [13] was 2.74 µM (inactive); in test [14], 1.85 µM (inactive); in test [15], 3.22 µM (inactive); in test [16], 6.61 µM (inactive); in test [17], 0.92 µM (active); in [18], 10.4 µM (inactive). The GI50 in test [19] was 3.31 µM (inactive); in test [20] it was 14.8 µM (inactive).
In the case of `c1ccc2cc(-c3cc(-c4cc(-c5ccc6ccccc6c5)on4)no3)ccc2c1`, the GI50 is > 100 µM (inactive) in test [1]; > 100 µM (inactive) in [2]; 13.6 µM (inactive) in test [3]; > 100 µM (inactive) in test [4]; > 100 µM (inactive) in test [5]; > 100 µM (inactive) in test [6]. Further, the GI50 in test [7] was 53.6 µM (inactive); in test [8], > 100 µM (inactive); in test [9], > 100 µM (inactive); in [10], > 100 µM (inactive); in [11] it was > 100 µM (inactive); in test [12] it was > 100 µM (inactive). The GI50 in test [13], in test [14], in [15], in test [16], in test [17] and in [18] was > 100 µM (inactive) in each case. Moreover, the GI50 in test [19] and in test [20] was > 100 µM (inactive) throughout.
Turning to `Cc1nccn1S(=O)(=O)c1ccc(Cl)cc1`, the GI50 in test [1] was > 100 µM (inactive); in [2] it was 36.1 µM (inactive); in test [3], 41 µM (inactive); in test [4], 81.8 µM (inactive); in test [5], 30.5 µM (inactive); in test [6] it was 35 µM (inactive). Moreover, the GI50 is 44.9 µM (inactive) in test [7]; 37.4 µM (inactive) in test [8]; 42.5 µM (inactive) in test [9]; 41.7 µM (inactive) in test [10]; 45 µM (inactive) in test [11]; 31.9 µM (inactive) in test [12]. In addition, the GI50 in test [13] is 74.8 µM (inactive); in test [14] it was 29.5 µM (inactive); in [15], 67.6 µM (inactive); in test [16], 32.7 µM (inactive); in [17], 94 µM (inactive); in test [18], 72.9 µM (inactive). The GI50 in [19] is 37.4 µM (inactive); in [20], 42.5 µM (inactive).
`C1=Cc2cccc3occ(c23)C=C1`: the GI50 is 58.3 µM (inactive) in test [1]; > 100 µM (inactive) in test [2]; 20.5 µM (inactive) in [3]; > 100 µM (inactive) in test [4]; 46.3 µM (inactive) in [5]; 35.1 µM (inactive) in test [6]. Moreover, the GI50 was 22.1 µM (inactive) in test [7]; 54.2 µM (inactive) in [8]; 43 µM (inactive) in test [9]; > 100 µM (inactive) in test [10]; 31.8 µM (inactive) in test [11]; > 100 µM (inactive) in test [12]. The GI50 in test [13] is 24.1 µM (inactive); in test [14] it was 56.9 µM (inactive); in test [15], > 100 µM (inactive); in test [16], 37.4 µM (inactive); in test [17], 47.2 µM (inactive); in test [18], > 100 µM (inactive). Besides, the GI50 in test [19] and in test [20] was > 100 µM (inactive) each time.
Regarding `COc1cc2cc(C(=O)N3CC(CCl)c4c3cc(NC(=O)OCc3ccc([N+](=O)[O-])cc3)c3ccccc43)[nH]c2c(OC)c1OC` (stereo not given), the GI50 is 0.785 µM (active) in [1]; < 0.01 µM (active) in test [2]; 8.91 µM (inactive) in test [3]; 0.108 µM (active) in [4]; 14.7 µM (inactive) in [5]; > 54.2 µM (inactive) in test [6]. Moreover, the GI50 in test [7] was > 53.1 µM (inactive); in [8] it was > 43.9 µM (inactive); in test [9], > 42.5 µM (inactive); in test [10] it was 29 µM (inactive); in [11], 36.1 µM (inactive); in test [12], 44.9 µM (inactive). In addition, the GI50 in test [13] was > 100 µM (inactive); in test [14], > 100 µM (inactive); in test [15], 17.2 µM (inactive); in [16], > 48.6 µM (inactive); in test [17], > 100 µM (inactive); in [18], > 69.2 µM (inactive). In addition, the GI50 in test [19] was 46.7 µM (inactive); in [20], > 71.3 µM (inactive).
`COc1cc2nc(-c3cccs3)[nH]c(=O)c2cc1OC`: the GI50 in [1] was > 100 µM (inactive); in test [2], > 100 µM (inactive); in [3] it was 36.6 µM (inactive); in [4], > 100 µM (inactive); in test [5], 70.6 µM (inactive); in [6], > 100 µM (inactive). Further, the GI50 was > 100 µM (inactive) in test [7]; 19.9 µM (inactive) in test [8]; > 100 µM (inactive) in [9]; > 100 µM (inactive) in test [10]; > 100 µM (inactive) in test [11]; 23.2 µM (inactive) in [12]. The GI50 in [13] is > 100 µM (inactive); in test [14], > 100 µM (inactive); in test [15] it was 86.7 µM (inactive); in test [16] it was 38.7 µM (inactive); in test [17] it was > 100 µM (inactive); in test [18] it was > 100 µM (inactive). For the same molecule, the GI50 in [19] and in test [20] was > 100 µM (inactive) throughout.
